From patent publication US12637469B2, “1H-pyrazole derivative and application thereof as dual target inhibitor of Syk and VEGFR2” (Ocumension Therapeutics (Suzhou) Co., Ltd., priority 2020, dated 2026)

Columns and labels:
Type in all cases: biochemical
[1] = molecular target: T1, Syk kinase (Homo sapiens, UniProt P43405); test: In vitro inhibitory effect on Syk kinase (HTRF enzymatic experiment); conditions: ATP 2 μM, read-out: IC50 (nM) for inhibition of Syk enzyme
T1 construct: purchased Invitrogen PV3857
Text: The interaction between the substrate and the enzyme was detected by HTRF, using the IC50 value of the compound as an indicator to evaluate the inhibitory effect of the compound on Syk kinase.
• Syk kinase (Invitrogen, PV3857) • DTT (Sigma #43815) • ATP (Sigma #A7699) • MgCl2 (Sigma #63020) • MnCl2 (Sigma #M1787) • EDTA (Invitrogen #15575-020) • HEPES Buffer (Invitrogen #15630-080) • HTRF® KinEASE™ TK (Cisbio #62TKOPEC, 20000 tests) • Low volume, 384-well, white polystyrene plate (Greiner #784075) • 384 Well Microplates (Greiner #781946) • Centrifuge (Eppendorf #5810R) • Pipette (Eppendorf) • Pipette (Greiner) • Pipette gun (Eppendorf) • Mutidorp Pipette • POD 810 Plate Assembler Automatic Microplate Pretreatment System • Envision Reader • Experimental Steps and Methods: • a) Compound dilution and plate-making: • 1) The compound powder was weighed, dissolved in a certain amount of DMSO at an initial concentration of 10 mM. • 2) The compound was diluted to a concentration of 0.74 mM, and plated with POD18, 135 nL per well, the starting compound concentration was 10 μM, and there were 11 concentration points, with 3-fold descending serial dilutions. • b) Enzyme-substrate reaction stage: • 1) Preparation and dilution of the experimental buffer: the 5×HTRF Buffer in the kit was diluted to 1×, and specified amounts of DTT and MgCl2 solutions were added for use. • 2) SYK enzyme reaction solution was prepared with 1×HTRF Buffer so that the final reaction concentration of SYK kinase was 0.0156 ng/μL. • 3) TK-Substrate-biotin/ATP mixture was prepared so that the final substrate concentration was controlled at 0.2 μM. ATP concentration was controlled at 2 μM. • 4) The solution and the mixture were added with a Mutidorp pipette, SYK enzyme solution and TK-Substrate-biotin/ATP mixture were each added 5 μL per well, and incubated with 23 solution for 1 hour. • c) Detection stage: • 1) 13.33 mL of ethylenediaminetetraacetic acid solution was added to the detection buffer of the kit, and specified amounts of Eu-labeled antibody and XL-665 were added to prepare the detection solution. • 2) The solution was added with a Mutidorp pipette, 10 μL of detection solution per well, and incubated with 23 solution for 1 hour. The reaction of the enzyme and substrate mixture was stopped. • 3) After centrifugation, the reading was obtained on Envision. • d) Data analyzation: the data was analyzed using XL-Fit and the IC50 value of the compound was calculated.

[2] = molecular target: T2, EGFR(h) (Homo sapiens, UniProt P00533); test: Eurofins KinaseProfiler off-target kinase inhibition
T2 construct: purchased Eurofins (KinaseProfiler platform)
T2 sequence (P00533 25-1210): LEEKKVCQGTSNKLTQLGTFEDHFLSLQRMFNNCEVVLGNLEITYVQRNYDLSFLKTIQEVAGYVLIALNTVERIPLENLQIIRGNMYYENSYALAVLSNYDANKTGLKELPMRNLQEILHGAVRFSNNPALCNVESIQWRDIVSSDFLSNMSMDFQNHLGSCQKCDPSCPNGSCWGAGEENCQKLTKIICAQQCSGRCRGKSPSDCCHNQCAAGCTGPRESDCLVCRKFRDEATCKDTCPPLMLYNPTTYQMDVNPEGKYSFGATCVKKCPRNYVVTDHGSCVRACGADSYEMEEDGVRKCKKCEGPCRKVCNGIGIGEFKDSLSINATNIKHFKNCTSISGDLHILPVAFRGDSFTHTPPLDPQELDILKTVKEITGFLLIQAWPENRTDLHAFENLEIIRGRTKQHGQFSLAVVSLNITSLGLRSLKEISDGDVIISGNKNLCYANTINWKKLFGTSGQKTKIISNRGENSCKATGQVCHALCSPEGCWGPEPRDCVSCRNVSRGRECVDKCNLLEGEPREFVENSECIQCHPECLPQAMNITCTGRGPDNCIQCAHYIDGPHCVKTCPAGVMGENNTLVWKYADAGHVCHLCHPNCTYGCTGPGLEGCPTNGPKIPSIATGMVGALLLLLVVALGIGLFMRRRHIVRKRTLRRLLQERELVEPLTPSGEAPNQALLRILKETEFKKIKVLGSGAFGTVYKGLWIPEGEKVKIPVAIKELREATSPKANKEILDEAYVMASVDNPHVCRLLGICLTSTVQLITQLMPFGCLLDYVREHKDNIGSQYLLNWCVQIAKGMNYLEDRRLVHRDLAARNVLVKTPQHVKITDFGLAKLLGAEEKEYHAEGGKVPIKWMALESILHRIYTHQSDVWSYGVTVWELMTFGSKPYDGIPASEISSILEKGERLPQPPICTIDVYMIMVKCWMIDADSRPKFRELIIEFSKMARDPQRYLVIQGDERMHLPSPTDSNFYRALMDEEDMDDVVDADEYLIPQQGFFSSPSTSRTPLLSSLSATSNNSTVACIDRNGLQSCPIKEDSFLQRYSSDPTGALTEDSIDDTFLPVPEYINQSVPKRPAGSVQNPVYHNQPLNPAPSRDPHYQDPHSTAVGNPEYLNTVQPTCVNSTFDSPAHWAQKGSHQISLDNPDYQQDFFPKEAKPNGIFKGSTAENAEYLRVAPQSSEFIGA
Procedure: (§1) In order to investigate the specificity of the inhibition of the target by the compound, in this study, the activity and selectivity of test compound 1 on the off-target kinases in related pathways were tested on the Eurofins kinaseProfiler™ platform, and compound screening and analysis were conducted using IC50 value as the indicator.
(§2) Compound 1 was detected for each selected kinase using the standard Eurofins Kinase Profiler™ protocol, which followed the relevant standard operating procedures. The IC50 values of the inhibitory activity of the test compound 1 on 67 kinases including Abl(h), B-Raf(h), BTK(h) and JAK(h) were analyzed.

[3] = molecular target: T3, PKBα(h) (Homo sapiens, UniProt P31749); test: as above
T3 construct: purchased Eurofins (KinaseProfiler platform)
T3 sequence (P31749 whole entry): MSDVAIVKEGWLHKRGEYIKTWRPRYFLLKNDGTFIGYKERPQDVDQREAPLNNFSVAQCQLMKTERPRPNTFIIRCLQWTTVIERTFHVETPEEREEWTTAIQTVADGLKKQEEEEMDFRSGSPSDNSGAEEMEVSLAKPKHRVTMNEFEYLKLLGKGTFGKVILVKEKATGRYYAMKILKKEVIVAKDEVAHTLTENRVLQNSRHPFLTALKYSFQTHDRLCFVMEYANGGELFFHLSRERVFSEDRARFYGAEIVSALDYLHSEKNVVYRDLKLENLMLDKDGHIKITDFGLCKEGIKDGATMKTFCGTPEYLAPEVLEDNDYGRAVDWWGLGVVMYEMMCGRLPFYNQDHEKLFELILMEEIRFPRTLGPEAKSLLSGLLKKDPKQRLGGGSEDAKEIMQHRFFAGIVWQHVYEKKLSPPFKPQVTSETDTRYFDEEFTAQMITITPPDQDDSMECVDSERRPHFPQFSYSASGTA
Procedure: as §1, §2

[4] = molecular target: T4, MKK4(m) (Mus musculus, UniProt P47809); test: as above
T4 construct: purchased Eurofins (KinaseProfiler service)
T4 sequence (P47809 whole entry): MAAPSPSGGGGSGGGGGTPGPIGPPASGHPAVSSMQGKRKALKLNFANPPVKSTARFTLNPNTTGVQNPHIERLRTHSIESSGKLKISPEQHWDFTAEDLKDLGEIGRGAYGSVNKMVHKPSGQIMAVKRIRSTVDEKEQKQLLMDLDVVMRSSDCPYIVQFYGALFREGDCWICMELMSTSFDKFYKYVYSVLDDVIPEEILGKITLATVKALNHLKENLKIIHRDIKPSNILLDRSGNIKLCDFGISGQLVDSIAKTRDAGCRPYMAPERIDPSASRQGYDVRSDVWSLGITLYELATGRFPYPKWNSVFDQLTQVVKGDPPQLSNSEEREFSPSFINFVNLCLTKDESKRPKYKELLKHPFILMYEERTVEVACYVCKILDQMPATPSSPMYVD
Procedure: as §1, §2

[5] = molecular target: T5, JNK3(h) (Homo sapiens, UniProt P53779); test: as above
T5 construct: purchased Eurofins (KinaseProfiler service)
Procedure: as §1, §2

[6] = molecular target: T6, CSK(h) (Homo sapiens, UniProt P41240); test: as above
T6 construct: purchased Eurofins (KinaseProfiler platform)
Procedure: as §1, §2

[7] = molecular target: T7, MEK2(h) (Homo sapiens, UniProt P36507); test: as above
T7 construct: purchased Eurofins (KinaseProfiler service)
Procedure: as §1, §2

[8] = molecular target: T8, Itk(h) (Homo sapiens, UniProt Q08881); test: as above
T8 construct: purchased Eurofins (KinaseProfiler service)
T8 sequence (Q08881 whole entry): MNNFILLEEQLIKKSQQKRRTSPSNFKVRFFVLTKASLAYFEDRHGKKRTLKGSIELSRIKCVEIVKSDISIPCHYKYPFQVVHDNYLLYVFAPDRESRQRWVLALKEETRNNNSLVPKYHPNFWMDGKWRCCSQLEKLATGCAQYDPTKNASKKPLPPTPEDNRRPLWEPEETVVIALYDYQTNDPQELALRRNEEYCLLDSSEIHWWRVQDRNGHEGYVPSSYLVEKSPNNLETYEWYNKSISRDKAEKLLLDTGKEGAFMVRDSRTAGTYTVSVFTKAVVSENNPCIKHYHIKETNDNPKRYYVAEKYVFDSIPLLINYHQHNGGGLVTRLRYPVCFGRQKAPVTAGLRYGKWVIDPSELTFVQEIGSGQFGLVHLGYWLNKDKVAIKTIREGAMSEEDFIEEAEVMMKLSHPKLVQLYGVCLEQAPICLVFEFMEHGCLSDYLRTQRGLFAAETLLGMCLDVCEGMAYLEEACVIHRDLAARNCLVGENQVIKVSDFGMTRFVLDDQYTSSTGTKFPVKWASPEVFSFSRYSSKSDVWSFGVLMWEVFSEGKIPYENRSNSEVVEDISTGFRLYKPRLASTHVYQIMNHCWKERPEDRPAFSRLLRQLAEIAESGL
Procedure: as §1, §2

[9] = molecular target: T9, Ret(h) (Homo sapiens, UniProt P07949); test: as above
T9 construct: purchased Eurofins (KinaseProfiler platform)
T9 sequence (P07949 29-1114): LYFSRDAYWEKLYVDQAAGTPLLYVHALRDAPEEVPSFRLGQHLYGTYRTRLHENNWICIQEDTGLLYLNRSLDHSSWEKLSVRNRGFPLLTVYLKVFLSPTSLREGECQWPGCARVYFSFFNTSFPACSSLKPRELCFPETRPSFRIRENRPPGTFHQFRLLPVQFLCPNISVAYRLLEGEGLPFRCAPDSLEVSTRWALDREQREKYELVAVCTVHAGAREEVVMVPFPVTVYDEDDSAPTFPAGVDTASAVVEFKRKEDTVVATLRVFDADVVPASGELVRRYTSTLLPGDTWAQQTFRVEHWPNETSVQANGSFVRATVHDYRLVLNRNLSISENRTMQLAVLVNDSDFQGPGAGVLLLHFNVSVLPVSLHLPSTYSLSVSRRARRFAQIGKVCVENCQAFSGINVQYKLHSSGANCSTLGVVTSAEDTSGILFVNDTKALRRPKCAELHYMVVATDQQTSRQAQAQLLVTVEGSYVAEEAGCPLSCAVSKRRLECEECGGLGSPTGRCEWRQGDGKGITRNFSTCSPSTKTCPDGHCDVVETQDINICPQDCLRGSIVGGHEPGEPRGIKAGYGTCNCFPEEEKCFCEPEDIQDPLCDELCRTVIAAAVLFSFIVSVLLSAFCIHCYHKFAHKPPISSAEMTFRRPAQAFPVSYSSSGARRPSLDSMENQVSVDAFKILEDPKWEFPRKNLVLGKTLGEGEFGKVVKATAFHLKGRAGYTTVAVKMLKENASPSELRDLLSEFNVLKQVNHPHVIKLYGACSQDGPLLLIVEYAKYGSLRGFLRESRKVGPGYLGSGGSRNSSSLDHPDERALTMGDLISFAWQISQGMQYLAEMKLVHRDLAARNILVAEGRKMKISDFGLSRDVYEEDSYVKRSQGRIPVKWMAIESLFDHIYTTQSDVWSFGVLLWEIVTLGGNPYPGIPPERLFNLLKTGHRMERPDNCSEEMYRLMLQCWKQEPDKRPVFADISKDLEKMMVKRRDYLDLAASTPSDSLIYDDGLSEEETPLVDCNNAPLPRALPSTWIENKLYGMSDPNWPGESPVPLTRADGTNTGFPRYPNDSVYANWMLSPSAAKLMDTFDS
Procedure: as §1, §2

[10] = molecular target: T10, IKKβ(h) (Homo sapiens, UniProt O14920); test: as above
T10 construct: purchased Eurofins (KinaseProfiler platform)
Procedure: as §1, §2

[11] = molecular target: T11, B-Raf(h) (Homo sapiens, UniProt P15056); test: as above
T11 construct: purchased Eurofins (KinaseProfiler platform)
T11 sequence (P15056 whole entry): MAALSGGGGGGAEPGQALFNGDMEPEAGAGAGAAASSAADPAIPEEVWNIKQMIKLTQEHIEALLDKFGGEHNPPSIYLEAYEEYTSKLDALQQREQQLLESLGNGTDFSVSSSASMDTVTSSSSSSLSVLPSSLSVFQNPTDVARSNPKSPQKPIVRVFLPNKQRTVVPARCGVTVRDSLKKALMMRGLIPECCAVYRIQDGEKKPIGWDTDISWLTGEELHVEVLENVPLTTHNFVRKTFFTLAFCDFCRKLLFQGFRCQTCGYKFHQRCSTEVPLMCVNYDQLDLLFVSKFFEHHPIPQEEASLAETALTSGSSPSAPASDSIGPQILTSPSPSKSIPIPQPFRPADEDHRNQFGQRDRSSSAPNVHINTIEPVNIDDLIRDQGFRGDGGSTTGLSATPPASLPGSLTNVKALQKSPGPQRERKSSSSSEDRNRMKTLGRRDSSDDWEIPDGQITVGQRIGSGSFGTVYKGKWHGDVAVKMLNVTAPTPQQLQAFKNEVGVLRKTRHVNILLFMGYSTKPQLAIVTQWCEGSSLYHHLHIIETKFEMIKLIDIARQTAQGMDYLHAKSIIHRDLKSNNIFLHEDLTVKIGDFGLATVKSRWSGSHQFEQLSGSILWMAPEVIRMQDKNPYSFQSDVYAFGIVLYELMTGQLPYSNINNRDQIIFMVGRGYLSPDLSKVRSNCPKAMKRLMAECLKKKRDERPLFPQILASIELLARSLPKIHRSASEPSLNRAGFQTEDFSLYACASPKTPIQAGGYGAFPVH
Procedure: as §1, §2

[12] = molecular target: T12, SAPK2b(h) (Homo sapiens, UniProt Q15759); test: as above
T12 construct: purchased Eurofins (KinaseProfiler platform)
T12 sequence (Q15759 whole entry): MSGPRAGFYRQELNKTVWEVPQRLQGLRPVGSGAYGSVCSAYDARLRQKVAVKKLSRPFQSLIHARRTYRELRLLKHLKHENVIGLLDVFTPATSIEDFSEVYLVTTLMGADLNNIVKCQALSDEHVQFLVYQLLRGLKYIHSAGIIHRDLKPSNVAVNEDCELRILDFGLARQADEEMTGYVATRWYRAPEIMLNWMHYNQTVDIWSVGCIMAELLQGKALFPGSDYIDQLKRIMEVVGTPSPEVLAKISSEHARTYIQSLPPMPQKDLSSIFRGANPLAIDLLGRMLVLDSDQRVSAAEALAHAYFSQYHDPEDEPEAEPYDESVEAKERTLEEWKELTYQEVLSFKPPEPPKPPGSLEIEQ
Procedure: as §1, §2

[13] = molecular target: VEGFR2 kinase (KDR enzyme) (Homo sapiens, UniProt P35968); test: In vitro inhibitory effect on VEGFR2 kinase (ADP-Glo enzymatic experiment); conditions: read-out: IC50 (nM) for inhibition of VEFGR2 enzyme
Procedure: The VEGFR2 kinase assay kit is intended for measuring VEGFR2 kinase activity using Kinase-Glo®MAX as a detection reagent, and compound screening and analysis were conducted using the IC50 value of the compound as an indicator.
The ADP-GLO™ Kinase Assay is an analytical reaction in which a luminescent kinase is used to determine the adenosine diphosphate formed by the kinase; ADP is converted to ATP, i.e., an optical signal is generated by Ultra-Glo™ luciferase. The optical signal is positively correlated with ADP quantity and kinase activity. This assay is ideal for determining the activity of the compound, making it ideal for primary screening and kinase selectivity analysis. The ADP-Glo™ Kinase Assay can be used to monitor the activity of virtually any ADP-producing enzyme such as a kinase orATPase: • 1) The enzyme, substrate, ATP and inhibitor were diluted in a kinase buffer; • 2) 384-well plate: 1 μL of inhibitor or (5% dimethyl sulfoxide solution), 2 μL of KDR enzyme, 2 μL of matrix/ATP mixture; • 3) the mixture was incubated at room temperature for 60 minutes; • 4) 5 μL of ADP-GLO™ reagent was added; • 5) the mixture was incubated for 40 minutes at room temperature; • 6) 10 μL of kinase detection reagent was added; • 7) the mixture was incubated at room temperature for 30 minutes; • 8) the luminescence was recorded (integration time 0.5-1 sec). The data was shown in relative light units (rlu), which was directly related to the amount of […]. There was correlation between the percent of the conversion from ATP to ADP for each kinase amount and the corresponding signal-to-background ratio. • 9) Data analysis: (a) KDR enzyme was titrated with 50 μM of ATP, and the luminescent signal produced by KDR enzyme was shown; (b) staurosporine dose response was generated with 1.5 ng of KDR to determine the IC50 value of the inhibitor.

IC50 [1]: 15 nM | IC50 [2]: > 10000 nM | IC50 [3]: > 10000 nM | IC50 [4]: > 10000 nM | IC50 [5]: 279 nM | IC50 [6]: > 10000 nM | IC50 [7]: > 10000 nM | IC50 [8]: 1850 nM | IC50 [9]: 756 nM | IC50 [10]: > 10000 nM | IC50 [11]: 91 nM | IC50 [12]: > 10000 nM | IC50 [13]: 23 nM
Compound: c1cn2c(n1)c(Nc1ccc(N3CCOCC3)cc1)nc1ccc(-c3cn[nH]c3)cc12 [Compound 1]
